Data: PubChem BioAssay (NCI)
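These data come from cells grown in 96-well plates and exposed to compound for 48 hours at five concentrations. GI50 is the concentration that inhibits growth by half. TGI marks complete inhibition of growth.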

How the values were obtained:
Assay in all cases: NCI anticancer screen, dose series, 48 h; in the data active = GI50 below about 0.43 µM; inactive = the rest
786-0 renal = test system: 786-0 renal
A498 renal = test system: A498 renal
A549 NSCLC = test system: A549 NSCLC
ACHN renal = test system: ACHN renal
BT-549 breast = test system: BT-549 breast
CAKI-1 renal = test system: CAKI-1 renal
CCRF-CEM leukemia = test system: CCRF-CEM leukemia
COLO 205 colon = test system: COLO 205 colon
DU-145 prostate = test system: DU-145 prostate
EKVX NSCLC = test system: EKVX NSCLC
HCC-2998 colon = test system: HCC-2998 colon
HCT-116 colon = test system: HCT-116 colon
HCT-15 colon = test system: HCT-15 colon
HL-60(TB) leukemia = test system: HL-60(TB) leukemia
HOP-62 NSCLC = test system: HOP-62 NSCLC
HOP-92 NSCLC = test system: HOP-92 NSCLC
HS 578T breast = test system: HS 578T breast
HT29 colon = test system: HT29 colon
IGROV1 ovarian = test system: IGROV1 ovarian
K-562 leukemia = test system: K-562 leukemia
KM12 colon = test system: KM12 colon
LOX IMVI melanoma = test system: LOX IMVI melanoma
M14 melanoma = test system: M14 melanoma
MALME-3M melanoma = test system: MALME-3M melanoma
MCF7 breast = test system: MCF7 breast
MDA-MB-231 breast = test system: MDA-MB-231 breast
MDA-MB-435 = test system: MDA-MB-435
MOLT-4 leukemia = test system: MOLT-4 leukemia
NCI-H226 lung = test system: NCI-H226 lung
NCI-H23 lung = test system: NCI-H23 lung
NCI-H460 lung = test system: NCI-H460 lung
NCI-H522 lung = test system: NCI-H522 lung
NCI/ADR-RES ovarian = test system: NCI/ADR-RES ovarian
OVCAR-3 ovarian = test system: OVCAR-3 ovarian
OVCAR-4 ovarian = test system: OVCAR-4 ovarian
OVCAR-5 ovarian = test system: OVCAR-5 ovarian
OVCAR-8 ovarian = test system: OVCAR-8 ovarian
PC-3 prostate = test system: PC-3 prostate
RPMI-8226 leukemia = test system: RPMI-8226 leukemia
RXF 393 renal = test system: RXF 393 renal
SF-268 CNS = test system: SF-268 CNS
SF-295 CNS = test system: SF-295 CNS
SF-539 CNS = test system: SF-539 CNS
SK-MEL-2 melanoma = test system: SK-MEL-2 melanoma
SK-MEL-28 melanoma = test system: SK-MEL-28 melanoma
SK-MEL-5 melanoma = test system: SK-MEL-5 melanoma
SK-OV-3 ovarian = test system: SK-OV-3 ovarian
SN12C renal = test system: SN12C renal
SNB-19 CNS = test system: SNB-19 CNS
SNB-75 CNS = test system: SNB-75 CNS
SR leukemia = test system: SR leukemia
SW-620 colon = test system: SW-620 colon
T-47D breast = test system: T-47D breast
TK-10 renal = test system: TK-10 renal
U251 CNS = test system: U251 CNS
UACC-257 melanoma = test system: UACC-257 melanoma
UACC-62 melanoma = test system: UACC-62 melanoma
UO-31 renal = test system: UO-31 renal

Cc1ccc(C(=O)NC2CC2)cc1-c1ccc2[nH]ncc2c1
> 25000 nM: TGI (A498 renal) | TGI (HOP-92 NSCLC) | TGI (OVCAR-3 ovarian) | TGI (OVCAR-4 ovarian) | TGI (OVCAR-5 ovarian) | TGI (T-47D breast) | TGI (UACC-257 melanoma) | TGI (UACC-62 melanoma)
inactive: GI50 (786-0 renal) > 25 µM | GI50 (A498 renal) > 12.7 µM | GI50 (A549 NSCLC) > 25000 nM | GI50 (ACHN renal) > 25 µM | GI50 (BT-549 breast) > 25 µM | GI50 (CAKI-1 renal) > 25000 nM | GI50 (CCRF-CEM leukemia) > 25 µM | GI50 (COLO 205 colon) > 25000 nM | GI50 (DU-145 prostate) > 25 µM | GI50 (EKVX NSCLC) > 25 µM | GI50 (HCC-2998 colon) > 25 µM | GI50 (HCT-116 colon) > 25 µM | GI50 (HCT-15 colon) > 25 µM | GI50 (HL-60(TB) leukemia) > 25 µM | GI50 (HOP-62 NSCLC) > 25000 nM | GI50 (HOP-92 NSCLC) 6.22 µM | GI50 (HS 578T breast) > 19.5 µM | GI50 (HT29 colon) > 25000 nM | GI50 (IGROV1 ovarian) > 25 µM | GI50 (K-562 leukemia) > 22000 nM | GI50 (KM12 colon) > 25 µM | GI50 (LOX IMVI melanoma) > 25 µM | GI50 (M14 melanoma) > 25 µM | GI50 (MALME-3M melanoma) > 25 µM | GI50 (MCF7 breast) > 25 µM | GI50 (MDA-MB-231 breast) > 25 µM | GI50 (MDA-MB-435) > 25 µM | GI50 (MOLT-4 leukemia) > 25 µM | GI50 (NCI-H226 lung) > 25 µM | GI50 (NCI-H23 lung) > 25 µM | GI50 (NCI-H460 lung) > 25 µM | GI50 (NCI-H522 lung) > 25 µM | GI50 (NCI/ADR-RES ovarian) > 25 µM | GI50 (OVCAR-3 ovarian) > 25 µM | GI50 (OVCAR-4 ovarian) > 25000 nM | GI50 (OVCAR-5 ovarian) > 25 µM | GI50 (OVCAR-8 ovarian) > 25 µM | GI50 (PC-3 prostate) > 25 µM | GI50 (RPMI-8226 leukemia) > 25000 nM | GI50 (RXF 393 renal) > 25 µM | GI50 (SF-268 CNS) > 25 µM | GI50 (SF-295 CNS) > 25000 nM | GI50 (SF-539 CNS) > 25 µM | GI50 (SK-MEL-2 melanoma) > 25000 nM | GI50 (SK-MEL-28 melanoma) > 25 µM | GI50 (SK-MEL-5 melanoma) > 25000 nM | GI50 (SK-OV-3 ovarian) > 25000 nM | GI50 (SN12C renal) > 25 µM | GI50 (SNB-19 CNS) > 25 µM | GI50 (SNB-75 CNS) > 13 µM | GI50 (SR leukemia) > 25 µM | GI50 (SW-620 colon) > 25000 nM | GI50 (T-47D breast) > 25 µM | GI50 (TK-10 renal) > 25 µM | GI50 (U251 CNS) > 25 µM | GI50 (UACC-257 melanoma) > 25 µM | GI50 (UACC-62 melanoma) > 25000 nM | GI50 (UO-31 renal) > 22.9 µM
> 25 µM: TGI (786-0 renal) | TGI (A549 NSCLC) | TGI (ACHN renal) | TGI (BT-549 breast) | TGI (CAKI-1 renal) | TGI (CCRF-CEM leukemia) | TGI (COLO 205 colon) | TGI (DU-145 prostate) | TGI (EKVX NSCLC) | TGI (HCC-2998 colon) | TGI (HCT-116 colon) | TGI (HCT-15 colon) | TGI (HL-60(TB) leukemia) | TGI (HOP-62 NSCLC) | TGI (HS 578T breast) | TGI (HT29 colon) | TGI (IGROV1 ovarian) | TGI (K-562 leukemia) | TGI (KM12 colon) | TGI (LOX IMVI melanoma) | TGI (M14 melanoma) | TGI (MALME-3M melanoma) | TGI (MCF7 breast) | TGI (MDA-MB-231 breast) | TGI (MDA-MB-435) | TGI (MOLT-4 leukemia) | TGI (NCI-H226 lung) | TGI (NCI-H23 lung) | TGI (NCI-H460 lung) | TGI (NCI-H522 lung) | TGI (NCI/ADR-RES ovarian) | TGI (OVCAR-8 ovarian) | TGI (PC-3 prostate) | TGI (RPMI-8226 leukemia) | TGI (RXF 393 renal) | TGI (SF-268 CNS) | TGI (SF-295 CNS) | TGI (SF-539 CNS) | TGI (SK-MEL-2 melanoma) | TGI (SK-MEL-28 melanoma) | TGI (SK-MEL-5 melanoma) | TGI (SK-OV-3 ovarian) | TGI (SN12C renal) | TGI (SNB-19 CNS) | TGI (SNB-75 CNS) | TGI (SR leukemia) | TGI (SW-620 colon) | TGI (TK-10 renal) | TGI (U251 CNS) | TGI (UO-31 renal)

CCN(Cc1c(F)cccc1Cl)c1ccc(CO)c(Cl)c1
45.7 nM: TGI (A498 renal)
29.8 µM: TGI (SF-539 CNS)
25 µM: TGI (SN12C renal)
25.5 µM: TGI (SNB-75 CNS)
20.1 µM: TGI (SK-MEL-5 melanoma)
24.9 µM: TGI (DU-145 prostate)
30.1 µM: TGI (786-0 renal)
17.4 µM: TGI (CAKI-1 renal)
269 nM: TGI (UACC-62 melanoma)
661 nM: TGI (OVCAR-4 ovarian)
active: GI50 (A498 renal) < 0.0146 µM | GI50 (HCT-116 colon) < 0.0172 µM | GI50 (HOP-62 NSCLC) 174 nM | GI50 (HOP-92 NSCLC) 0.116 µM | GI50 (K-562 leukemia) 200 nM | GI50 (MCF7 breast) < 0.02 µM | GI50 (NCI-H460 lung) < 0.0249 µM | GI50 (OVCAR-3 ovarian) < 0.034 µM | GI50 (OVCAR-4 ovarian) 64.8 nM | GI50 (RPMI-8226 leukemia) 173 nM | GI50 (SF-295 CNS) 178 nM | GI50 (SW-620 colon) 175 nM | GI50 (T-47D breast) < 0.0153 µM | GI50 (UACC-257 melanoma) < 0.0248 µM | GI50 (UACC-62 melanoma) 41.9 nM
297 nM: TGI (OVCAR-3 ovarian)
106 nM: TGI (OVCAR-5 ovarian)
31.4 µM: TGI (SF-268 CNS)
inactive: GI50 (786-0 renal) 14.9 µM | GI50 (A549 NSCLC) 573 nM | GI50 (ACHN renal) 15.1 µM | GI50 (BT-549 breast) 16.5 µM | GI50 (CAKI-1 renal) 1200 nM | GI50 (CCRF-CEM leukemia) 16.2 µM | GI50 (COLO 205 colon) 694 nM | GI50 (DU-145 prostate) 11.8 µM | GI50 (HCC-2998 colon) 3.27 µM | GI50 (HCT-15 colon) 10 µM | GI50 (HL-60(TB) leukemia) 13 µM | GI50 (HS 578T breast) 18.2 µM | GI50 (HT29 colon) 668 nM | GI50 (KM12 colon) 11.8 µM | GI50 (LOX IMVI melanoma) 18 µM | GI50 (M14 melanoma) 17.6 µM | GI50 (MALME-3M melanoma) 14.1 µM | GI50 (MDA-MB-231 breast) 13.3 µM | GI50 (MDA-MB-435) 10.9 µM | GI50 (MOLT-4 leukemia) 17.1 µM | GI50 (NCI-H23 lung) 13.9 µM | GI50 (NCI-H522 lung) 13.8 µM | GI50 (NCI/ADR-RES ovarian) 10.4 µM | GI50 (OVCAR-8 ovarian) 7.65 µM | GI50 (PC-3 prostate) 12 µM | GI50 (RXF 393 renal) 6.31 µM | GI50 (SF-268 CNS) 16.4 µM | GI50 (SF-539 CNS) 15.5 µM | GI50 (SK-MEL-2 melanoma) 785 nM | GI50 (SK-MEL-28 melanoma) 13.1 µM | GI50 (SK-MEL-5 melanoma) 500 nM | GI50 (SK-OV-3 ovarian) 2520 nM | GI50 (SN12C renal) 11.9 µM | GI50 (SNB-19 CNS) 15.7 µM | GI50 (SNB-75 CNS) 11.1 µM | GI50 (SR leukemia) 16.5 µM | GI50 (UO-31 renal) 12.9 µM
37.3 µM: TGI (HL-60(TB) leukemia)
39 µM: TGI (CCRF-CEM leukemia)
13 µM: TGI (SK-OV-3 ovarian)
25.1 µM: TGI (PC-3 prostate)
26.1 µM: TGI (UO-31 renal)
12.6 µM: TGI (K-562 leukemia)
24.3 µM: TGI (MDA-MB-435)
24.7 µM: TGI (HCT-15 colon)
12.1 µM: TGI (HCT-116 colon)
15.7 µM: TGI (SF-295 CNS)
18.3 µM: TGI (HCC-2998 colon) | TGI (HOP-62 NSCLC)
39.8 µM: TGI (MOLT-4 leukemia)
22 µM: TGI (RPMI-8226 leukemia)
42.7 µM: TGI (SR leukemia)
14.4 µM: TGI (MCF7 breast)
19.9 µM: TGI (SK-MEL-2 melanoma)
27.4 µM: TGI (SK-MEL-28 melanoma)
33.5 µM: TGI (LOX IMVI melanoma)
33.8 µM: TGI (NCI-H23 lung)
35.9 µM: TGI (M14 melanoma)
47 µM: TGI (HS 578T breast)
16.6 µM: TGI (A549 NSCLC) | TGI (U251 CNS)
40.1 µM: TGI (SNB-19 CNS)
20 µM: TGI (SW-620 colon)
49.6 nM: TGI (T-47D breast)
31.2 µM: TGI (BT-549 breast)
6.13 µM: TGI (COLO 205 colon)
28.7 µM: TGI (NCI/ADR-RES ovarian)
933 nM: TGI (HOP-92 NSCLC)
11.2 µM: TGI (NCI-H460 lung)
29.4 µM: TGI (ACHN renal)
28.6 µM: TGI (MALME-3M melanoma)
27.1 µM: TGI (MDA-MB-231 breast)
23.9 µM: TGI (OVCAR-8 ovarian)
28.5 µM: TGI (NCI-H522 lung)
25.8 µM: TGI (KM12 colon)
16 µM: TGI (HT29 colon)
50 nM: TGI (UACC-257 melanoma)
27 µM: TGI (RXF 393 renal)
